Measurements taken from patent US20040249124A1 (priority 2001, published 2004).

Test system: antibody MBS-3 binding to p17
Assay: Competitive ELISA: displacement of MBS-3 binding to p17 absorbed in solid phase

NH2-Ser-Gly-Gly-Glu-Leu-Asp-Arg-Trp-Glu-Lys-Ile-Arg-Leu-Arg-COOH (H-SGGELDRWEKIRLR-OH) [SEQ ID NO: 2]
displacing the binding of the antibody MBS-3 to p17: efficacious in displacing
